Test results as given in patent US10590422B2, “Anticancer therapeutic intervention” (PHYZAT BIOPHARMACEUTICALS, LDA., priority 2017, dated 2020).

Tests used:
LAT1 = LAT1 activity: [^14C]-L-leucine uptake in fibrosarcoma HT-1080 cells after LAT1 gene silencing; assay type: cell-based, human; conditions: 5 nM siRNA, treatment 6 h, at 48 h, 0.4% Lipofectamine 2000, FIG. 8A
Protocol: (§1) Cells were plated in 24-well plates (Sarstedt, Germany) and grown until confluence was reached. On the day of the experiment, cell culture medium was aspirated and cells were preincubated for 15 min in Hanks' medium (NaCl 140 mM, KCl 5 mM, MgSO4.7H2O 0.8 mM, K2HPO4 0.33 mM, KH2PO4 0.44 mM, MgCl2.6H2O 1 mM, CaCl2) 0.025 mM, Tris-HCl 9.75 mM, pH 7.4). Uptake was initiated by addition of Hanks' medium with 0.25 μM [^14C]-L-leucine in the absence and in the presence of 3 mM unlabeled L-leucine. During preincubation and incubation cells were continuously shaken and maintained at 37° C. Uptake was terminated after 1 min by rapid removal of uptake solution by means of a vacuum pump connected to a Pasteur pipette, followed by a rapid wash with Hanks' medium. Subsequently, cells were solubilized in 0.1% vol/vol Triton X-100 (dissolved in 5 mM Tris-HCl, pH 7.4), and radioactivity was measured by liquid scintillation counting.
(§2) Cells were plated in 24-well (Sarstedt, Germany) or 6-well plates (Sarstedt, Germany) or 96-well plates with black walls clear bottom (BD Biosciences, USA) and incubated 24 h under normal growth conditions. siRNAs against LAT1 and transfection agent were diluted at desired concentrations and mixed according to transfection agent manufacturer's instructions. The mixture was incubated 20 min at RT for siRNA-complex formation, after which it was added to the cells and incubated at 37° C., 5% CO2. After the incubation period, serum and antibiotic was restored and cells were further incubated at normal conditions for the desired time points until evaluation of LAT1 activity or LAT1 expression (immunoblotting and RT-qPCR).

LAT1 mRNA = test: LAT1 gene expression (RT-qPCR) after LAT1 gene silencing in human colon cancer HTC-116 cells; assay type: cell-based; conditions: treatment 6 h
Protocol: SK-HEP-1, T24, HT-1080 and HCT-116 cell lines were maintained in a humidified atmosphere of 5% CO2 at 37° C. SK-HEP-1 cells were grown in RPMI-1640 (Sigma, St. Louis, Mo.) supplemented with 20% fetal bovine serum (FBS) (Gibco, UK), 100 U/mL penicillin G, 0.25 μg/mL amphotericin B, 100 μg/mL streptomycin (Gibco, UK), 25 mM sodium bicarbonate (Merck, Germany) and 25 mM N-2-hydroxyethylpiperazine-N′-2-ethanosulfonic acid (HEPES) (Sigma, St. Louis, Mo.). T24 and HT-1080 cells were grown, respectively, in Dulbecco's Modified Eagle's Medium (DMEM)—high glucose (Sigma, St. Louis, Mo.) and DMEM—low glucose (Sigma, St. Louis, Mo.), supplemented with 10% FBS (Gibco, UK), 100 U/mL penicillin G, 0.25 μg/mL amphotericin B, 100 μg/mL streptomycin (Gibco, UK), 25 mM sodium bicarbonate (Merck, Germany) and 25 mM HEPES (Sigma, St. Louis, Mo.). HCT-116 cells were grown in McCoy's 5A (Sigma, St. Louis, Mo.) supplemented with 10% FBS (Gibco, UK), 100 U/mL penicillin G, 0.25 μg/mL amphotericin B, 100 μg/mL streptomycin (Gibco, UK), 25 mM sodium bicarbonate (Merck, Germany) and 25 mM HEPES (Sigma, St. Louis, Mo.). For all cell lines the medium was changed every 2 days, and cells reached confluence 3-4 days after initial seeding. For subculturing, cells were dissociated with 0.25% trypsin-ethylenediaminetetraacetic acid (EDTA) (Sigma, St. Louis, Mo.), split 1:15 or 1:20 and subcultured in a 21-cm^2 growth area (Sarstedt, Germany).
Total RNA was isolated and purified using the SV Total RNA Isolation System (Promega, USA) according to manufacturer's instructions. RNA quality and concentration were verified in the NanoDrop ND1000 Spectrophotometer (Thermo Scientific, USA), and RNA integrity and genomic DNA contamination were evaluated by agarose gel electrophoresis. Total RNA (1 μg) was converted into cDNA using the Maxima Scientific First Strand cDNA Synthesis Kit for RT-qPCR (Thermo Scientific, USA), according to instructions. The following protocol was used: 1st step, 10 min at 25° C.; 2nd step, 15 min at 50° C.; 3rd step, 5 min at 85° C. cDNA was used for qPCR analysis using Maxima SYBR Green qPCR Master Mix (Thermo Scientific, USA) in the StepOnePlus instrument (Applied Biosystems, USA). QuantiTect Primer Assay for LAT1 and ASCT2 and for the endogenous control gene GAPDH (Quiagen, Germany) were used. The qPCR reaction was performed in 96-well PCR plates (Sarstedt, Germany) as follows: one cycle of 10 min at 95° C., followed by 40 PCR cycles at 95° C. 15 s and 60° C. 60 s. […] No template controls were always evaluated for each target gene. Quantification cycle (Cq) values were generated automatically by the StepOnePlus 2.3 Software and the ratio of the target gene was expressed in comparison to the endogenous control gene GAPDH.
as §2

ASCT2 = ASCT2 activity: [^14C]-L-alanine uptake in fibrosarcoma HT-1080 cells after ASCT2 gene silencing; assay type: cell-based, human; conditions: at 48 h
Protocol: as §1, with “the experiment, Cell culture medium” for “the experiment, cell culture medium”, “Hanks' medium (ChCl 140 mM,” for “Hanks' medium (NaCl 140 mM,”, “initiated by the addition of” for “initiated by addition of”, “0.25 μM [^14C]-L-alanine in the” for “0.25 μM [^14C]-L-leucine in the”, “mM unlabeled L-alanin. During preincubation” for “mM unlabeled L-leucine. During preincubation”
as §2, with “ASCT2” for “LAT1”

Substance: 58/387/388 (sense CUUCGCCACCUACCUGCUCAATT; antisense UUGAGCAGGUAGGUGGCGAAGTT; siRNA; sugars by position and backbone not given here; further chemistry not fully specified)
- [^14C]-L-leucine (0.25 μM) uptake at initial rate of uptake (1 min) (LAT1): decreased
- LAT1 mRNA relative abundance (LAT1 mRNA; 5, 25 and 45 nM, concentration dependent, 0.5% Lipofectamine 2000, Lipofectamine RNAiMAX or Injectin, at 72 h, FIGS. 10A and 10B): decreased
- LAT1 mRNA relative abundance (LAT1 mRNA; 5 or 25 nM siRNA, at 24 h or 48 h, 0.5% Lipofectamine 2000, FIGS. 9A and 9C): decreased
- LAT1 mRNA relative abundance (LAT1 mRNA; 72 h, 0.17% Lipofectamine 2000 or 0.1% Injectin, FIG. 19A): significantly decreased

Substance: 278/403/404 (sense UGCCACGGUCGCCUCUGAGAATT; antisense UUCUCAGAGGCGACCGUGGCATT; siRNA; sugars by position and backbone not given here; further chemistry not fully specified)
- Effect on [^14C]-L-alanine uptake compared with SEQ ID NO: 267/397/398 (ASCT2; HT-1080 cells, 5 nM, p<0.05): significantly greater
- [^14C]-L-alanine (0.25 μM) uptake at initial rate of uptake (1 min) (ASCT2; fibrosarcoma HT-1080 cells, 5 nM siRNA, treatment 6 h, 0.4% Lipofectamine 2000, FIG. 8B): decreased
